Common to all, as to type: cell-based
For one series, the system named is HBsAg. The series can be described thus: PHH HBV natural infection assay, HBsAg (alphalisa). The gist of the method:
(§1)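 Primary human hepatocytes infected with HBV at 200 GE/cell plus 4% PEG8000 for 24 h, then sandwich-cultured 72 h. Compounds were added in two refreshes 72 h apart. HBsAg and HBeAg in supernatant measured by AlphaLISA.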

The nature of series [1]: PHH natural infection assay, cytotoxicity (Cell Counting Kit-8). The conditions noted are these: human, HBV-infected primary human hepatocytes, CCK8, end of treatment. The gist of the method: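 HBV-infected at 200 GE/cell with 4% PEG8000 for 24 h, then sandwich-cultured 72 h in 1% DMSO and 0.25 mg/mL matrix gel. Compound added twice at 72-h intervals; supernatant HBsAg and HBeAg read by AlphaLISA, HBV DNA by quantitative fluorescence PCR kit. Cytotoxicity by CCK-8.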

A further series concerns HBeAg. Briefly: PHH HBV natural infection assay, HBeAg (alphalisa). The gist of the method:
as §1

[2] abbreviates: Hepatitis B virus, Hepatocyte, 72 h, read-out: HBsAg IC50, HBV-infected primary human hepatocytes, supernatant, compound medium refreshed two times with 72-hour interval.
Setting [3] is: Hepatitis B virus, Hepatocyte, 72 h, read-out: HbeAg IC50, HBV-infected primary human hepatocytes, supernatant, compound medium refreshed two times with 72-hour interval.
Where [4] appears, read: read-out: HBsAg IC50, HBV-infected primary human hepatocytes, supernatant, compound medium refreshed two times with 72-hour interval.
Setting [5] is: read-out: HbeAg IC50, HBV-infected primary human hepatocytes, supernatant, compound medium refreshed two times with 72-hour interval.

These results are taken from patent publication US20230286969A1, “AROMATIC SPIRO RING AMIDE DERIVATIVES FOR THE TREATMENT AND PROPHYLAXIS OF HEPATITIS B VIRUS INFECTION” (Hoffmann-La Roche Inc., priority 2020, published 2023).

Where two headings read alike, the source gives them in different places.

On to `CC(C)S(=N)(=O)Cc1ccc(C(=O)NC2CC3(C2)CC(c2nc4cc(Cl)ccc4o2)C3)o1` (stereo not drawn) [Example 59, N-[6-(5-chloro-1,3-benzoxazol-2-yl)spiro[3.3]heptan-2-yl]-5-[(isopropylsulfonimidoyl)methyl]furan-2-carboxamide], for which the IC50 was 3.81 µM in the series on HBsAg (setting [2]) and 2.6 µM in the series on HBeAg (setting [3]). In addition, the CC50 at 144 h in series [1] was greater than 100 µM.
As for `O=C(NC1CC2(C1)CC(c1nc3cc(Cl)ccc3o1)C2)c1ccc(S(=O)(=O)CC2COC2)o1` (stereo not drawn) [Example 24, N-[6-(5-chloro-1,3-benzoxazol-2-yl)spiro[3.3]heptan-2-yl]-5-(oxetan-3-ylmethylsulfonyl)furan-2-carboxamide], the IC50 in the series on HBsAg (setting [2]) came out at 2.44 µM; with HBeAg (setting [3]), 2.33 µM. In series [1], this compound came in with a CC50 at 144 h of 95.3 µM.
`CC(C)(C)[S+]([O-])c1ccc(C(=O)NC2CC3(C2)CC(c2nc4cc(Cl)ccc4o2)C3)o1` (stereo not drawn) [Example 38, 5-tert-butylsulfinyl-N-[6-(5-chloro-1,3-benzoxazol-2-yl)spiro[3.3]heptan-2-yl]furan-2-carboxamide]: the IC50 with HBsAg (setting [2]) was 0.526 µM; in the series with HBeAg (setting [3]), 0.317 µM. Also, in series [1], it took 96.3 µM to reach half-maximal cytotoxicity (CC50 at 144 h).
Regarding `CC(C)(C)S(=O)(=O)c1ccc(C(=O)NC2CC3(C2)CC(c2nc4cc(Cl)ccc4o2)C3)o1` (stereo not drawn) [Example 39, 5-tert-butylsulfonyl-N-[6-(5-chloro-1,3-benzoxazol-2-yl)spiro[3.3]heptan-2-yl]furan-2-carboxamide], the 50% inhibitory concentration (IC50) with HBsAg (setting [2]) was found to be 0.96 µM; with HBeAg (setting [3]), 0.603 µM. Further, the CC50 at 144 h in series [1] was greater than 10 µM.
Regarding `NS(=O)(=O)c1ccc(C(=O)NC2CC3(C2)CC(c2nc4cc(Cl)ccc4o2)C3)o1` (single isomer, unassigned) [Example 29-a, N-[6-(5-chloro-1,3-benzoxazol-2-yl)spiro[3.3]heptan-2-yl]-5-sulfamoyl-furan-2-carboxamide], the figures for the IC50 with HBsAg (setting [4]) and in the series with HBeAg (setting [5]) were 5.12 µM and 2.28 µM, respectively. Besides, the 50% cytotoxic concentration (CC50) at 144 h in series [1] is greater than 100 µM.
On to `O=C(NC1CC2(C1)CC(c1nc3cc(Cl)ccc3o1)C2)c1ccc(S2(=O)=NCCCC2)o1` (stereo not drawn) [Example 62, N-[6-(5-chloro-1,3-benzoxazol-2-yl)spiro[3.3]heptan-2-yl]-5-(1-oxo-1lambda6-thia-2-azacyclohexen-1-yl)furan-2-carboxamide], for which the 50% inhibitory concentration (IC50) turned out to be 5.01 µM in the series on HBsAg (setting [2]) and 4.85 µM in the series with HBeAg (setting [3]). In series [1], this compound had a CC50 at 144 h greater than 100 µM.
With `CS(=O)(=O)CCc1ccc(C(=O)NC2CC3(C2)CC(c2nc4cc(Cl)ccc4o2)C3)o1` (stereo not drawn) [Example 32, N-[6-(5-chloro-1,3-benzoxazol-2-yl)spiro[3.3]heptan-2-yl]-5-(2-methylsulfonylethyl)furan-2-carboxamide], the 50% inhibitory concentration (IC50) in the series on HBsAg (setting [2]) came out at 4.94 µM; in the series with HBeAg (setting [3]), 3.15 µM. This compound registered a CC50 at 144 h in series [1] greater than 100 µM.
For the compound `N=S(=O)(c1ccc(C(=O)NC2CC3(C2)CC(c2nc4cnc(Cl)cc4o2)C3)o1)C1CC1` (stereo not drawn) [Example 65, N-[6-(6-chlorooxazolo[4,5-c]pyridin-2-yl)spiro[3.3]heptan-2-yl]-5-(cyclopropylsulfonimidoyl)furan-2-carboxamide], the IC50 in the series with HBsAg (setting [2]) was 6.38 µM; in the series on HBeAg (setting [3]), 5.83 µM. This compound also showed a CC50 at 144 h in series [1] greater than 100 µM.
For `O=C(NC1CC2(C1)CC(c1nc3cc(Cl)ccc3o1)C2)c1ccc([S+]([O-])CC2CC2)o1` (single isomer, unassigned) [Example 19-a, N-[6-(5-chloro-1,3-benzoxazol-2-yl)spiro[3.3]heptan-2-yl]-5-(cyclopropylmethylsulfinyl)furan-2-carboxamide], the IC50 turned out to be 0.088 µM with HBsAg (setting [4]) and 0.067 µM with HBeAg (setting [5]). Moreover, the CC50 at 144 h in series [1] is greater than 10 µM.
For `O=C(NC1CC2(C1)CC(c1nc3cc(Cl)ccc3o1)C2)c1ccc(S(=O)(=O)NC(=O)C2CCS(=O)(=O)C2)o1` (stereo not drawn) [Example 84, N-[6-(5-chloro-1,3-benzoxazol-2-yl)spiro[3.3]heptan-2-yl]-5-[(1,1-dioxothiolane-3-carbonyl)sulfamoyl]furan-2-carboxamide], the concentration for half-maximal inhibition (IC50) with HBsAg (setting [2]) is 9 µM; in the series with HBeAg (setting [3]), 6.32 µM. In series [1], this compound came in with a CC50 at 144 h greater than 10 µM.
On the same counts, the results for `O=C(NC1CC2(C1)CC(c1nc3ccc(F)cc3o1)C2)c1ccc(C(F)(F)F)o1` (stereo not drawn) [Example 47, N-[6-(6-fluoro-1,3-benzoxazol-2-yl)spiro[3.3]heptan-2-yl]-5-(trifluoromethyl)furan-2-carboxamide] are 9.59 µM, 10.6 µM and greater than 100 µM.
Regarding `O=C(NC1CC2(C1)CC(c1nc3cc(Cl)ccc3o1)C2)c1ccc([S+]([O-])C(F)(F)F)o1` (stereo not drawn) [Example 42, N-[6-(5-chloro-1,3-benzoxazol-2-yl)spiro[3.3]heptan-2-yl]-5-(trifluoromethylsulfinyl)furan-2-carboxamide], the figures for the IC50 in the series with HBsAg (setting [2]) and with HBeAg (setting [3]) were 1.52 µM and 1.41 µM, respectively. For the same compound, the midpoint of cytotoxicity in series [1], the CC50 at 144 h, lay at 96.2 µM.
For `O=C(NC1CC2(C1)CC(c1nc3cc(Cl)ccc3o1)C2)c1ccc(S(=O)(=O)NC(=O)C2CCCS(=O)(=O)C2)o1` (stereo not drawn) [Example 85, N-[6-(5-chloro-1,3-benzoxazol-2-yl)spiro[3.3]heptan-2-yl]-5-[(1,1-dioxothiane-3-carbonyl)sulfamoyl]furan-2-carboxamide], the IC50 was determined as 2.52 µM in the series on HBsAg (setting [2]) and 1.67 µM in the series on HBeAg (setting [3]). The compound further gave a CC50 at 144 h in series [1] greater than 10 µM.
For `COc1ccc(C(=O)NC2CC3(C2)CC(c2nc4cc(Cl)ccc4o2)C3)o1` (stereo not drawn) [Example 8, N-[6-(5-chloro-1,3-benzoxazol-2-yl)spiro[3.3]heptan-2-yl]-5-methoxy-furan-2-carboxamide], in that order: 7.96 µM, 5.84 µM and 94.2 µM.
With `O=C(NC1CC2(C1)CC(c1nc3cc(Cl)ccc3o1)C2)c1ccc(CS(=O)(=O)C2CC2)o1` (stereo not drawn) [Example 31, N-[6-(5-chloro-1,3-benzoxazol-2-yl)spiro[3.3]heptan-2-yl]-5-(cyclopropylsulfonylmethyl)furan-2-carboxamide], the results for the 50% inhibitory concentration (IC50) in the series on HBsAg (setting [2]) and in the series on HBeAg (setting [3]) were 7.56 µM and 6.98 µM, respectively. In series [1], this compound returned a CC50 at 144 h greater than 100 µM.
As to `N=S(=O)(CC1COC1)c1ccc(C(=O)NC2CC3(C2)CC(c2nc4cc(Cl)ccc4o2)C3)o1` (stereo not drawn) [Example 56, N-[6-(5-chloro-1,3-benzoxazol-2-yl)spiro[3.3]heptan-2-yl]-5-(oxetan-3-ylmethylsulfonimidoyl)furan-2-carboxamide], the results for the IC50 with HBsAg (setting [2]) and in the series on HBeAg (setting [3]) were 4.41 µM and 2.9 µM, respectively. The same compound yielded a CC50 at 144 h in series [1] greater than 100 µM.
For the compound `COCc1ccc(C(=O)NC2CC3(C2)CC(c2nc4cc(Cl)ccc4o2)C3)o1` (stereo not drawn) [Example 9, N-[6-(5-chloro-1,3-benzoxazol-2-yl)spiro[3.3]heptan-2-yl]-5-(methoxymethyl)furan-2-carboxamide], the results for the half-inhibitory concentration (IC50) in the series with HBsAg (setting [2]) and in the series on HBeAg (setting [3]) were 1.57 µM and 1.01 µM, respectively. Further, in series [1], the CC50 at 144 h worked out at 91 µM.
On to `O=C(NC1CC2(C1)CC(c1nc3cc(Cl)cnc3o1)C2)c1ccc(S(=O)(=O)C2CC2)o1` (stereo not drawn) [Example 49, N-[6-(6-chlorooxazolo[5,4-b]pyridin-2-yl)spiro[3.3]heptan-2-yl]-5-cyclopropylsulfonyl-furan-2-carboxamide], for which the concentration for half-maximal inhibition (IC50) in the series with HBsAg (setting [2]) amounted to 2.4 µM; with HBeAg (setting [3]) it was 1.74 µM. Also, the CC50 at 144 h in series [1] was 84.5 µM.
On to `CC(C)C[S+]([O-])c1ccc(C(=O)NC2CC3(C2)CC(c2nc4cc(Cl)ccc4o2)C3)o1` (stereo not drawn) [Example 21, N-[6-(5-chloro-1,3-benzoxazol-2-yl)spiro[3.3]heptan-2-yl]-5-isobutylsulfinyl-furan-2-carboxamide], for which the figures for the concentration for half-maximal inhibition (IC50) in the series with HBsAg (setting [2]) and in the series with HBeAg (setting [3]) were 0.372 µM and 0.314 µM, respectively. For the same compound, the half-maximal cytotoxic concentration (CC50) at 144 h in series [1] was 92.4 µM.
Consider `CCS(=O)(=O)c1ccc(C(=O)NC2CC3(C2)CC(c2nc4cc(Cl)ccc4o2)C3)o1` (stereo not drawn) [Example 16, N-[6-(5-chloro-1,3-benzoxazol-2-yl)spiro[3.3]heptan-2-yl]-5-ethylsulfonyl-furan-2-carboxamide], for which the half-inhibitory concentration (IC50) was determined as 1.53 µM in the series with HBsAg (setting [2]) and 1.03 µM in the series on HBeAg (setting [3]). This compound displayed a CC50 at 144 h in series [1] of 74 µM.
On the same counts, the results for `CCS(=O)(=O)c1cc(C)c(C(=O)NC2CC3(C2)CC(c2nc4cc(Cl)ccc4o2)C3)o1` (stereo not drawn) [Example 37, N-[6-(5-chloro-1,3-benzoxazol-2-yl)spiro[3.3]heptan-2-yl]-5-ethylsulfonyl-3-methyl-furan-2-carboxamide] are 9.38 µM, 5.72 µM and greater than 100 µM.
For `CNS(=O)(=O)c1ccc(C(=O)NC2CC3(C2)CC(c2nc4cc(Cl)ccc4o2)C3)o1` (stereo not drawn) [Example 88, N-[6-(5-chloro-1,3-benzoxazol-2-yl)spiro[3.3]heptan-2-yl]-5-(methylsulfamoyl)furan-2-carboxamide], in that order: 1 µM, 0.687 µM and greater than 10 µM.
As for `CS(=N)(=O)c1ccc(C(=O)NC2CC3(C2)CC(c2nc4cc(Cl)cnc4o2)C3)o1` (stereo not drawn) [Example 63, N-[6-(6-chlorooxazolo[5,4-b]pyridin-2-yl)spiro[3.3]heptan-2-yl]-5-(methylsulfonimidoyl)furan-2-carboxamide], the values for the IC50 with HBsAg (setting [2]) and with HBeAg (setting [3]) were 6.69 µM and 4.94 µM, respectively. This compound displayed a cytotoxic concentration (CC50) at 144 h in series [1] greater than 100 µM.
Consider `CC(=O)NS(=O)(=O)c1ccc(C(=O)NC2CC3(C2)CC(c2nc4cc(Cl)ccc4o2)C3)o1` (stereo not drawn) [Example 80, 5-(acetylsulfamoyl)-N-[6-(5-chloro-1,3-benzoxazol-2-yl)spiro[3.3]heptan-2-yl]furan-2-carboxamide], for which the IC50 turned out to be 2.77 µM in the series on HBsAg (setting [2]) and 1.8 µM in the series with HBeAg (setting [3]). For the same compound, in series [1], the CC50 at 144 h was greater than 100 µM.
